What was measured:
[1] = tested on: Chenopodium spp., Papaver spp., Polygonum spp., Veronica spp. or Viola spp.; test: Post-emergence effect on weeds (greenhouse pot test, visual scoring); type: in vivo, monocotyledonous and dicotyledonous weeds; conditions: treated at three-leaf stage; visual scoring after about 3 to 4 weeks; application rate of 0.5 kg and less of active substance per hectare
[2] = tested on: Cyperus spp., Echinochloa spp., Digitaria spp., Sagitaria spp. and Scirpus spp.; test: Action on harmful plants in rice (paddy rice conditions, visual scoring); type: in vivo, typical rice weeds (gramineous and broad-leaved); conditions: applied into the dammed water, visual scoring about three weeks after application
Description: Transplanted and sown rice and also typical rice weeds (gramineous and broad-leaved) are cultivated in closed plastic pots in a greenhouse to the three-leaf stage (Echinochloa crus-galli 1.5-leaf) under paddy rice conditions (dammed height of water: 2-3 cm). This is followed by treatment with the compounds according to the invention. […] After this treatment, the test plants are set up in a greenhouse under optimum growth conditions and are maintained in this way throughout the test period.

Row | Compound | herbicidal activity post-emergence against harmful plants [1] | herbicidal activity against harmful plants which are typical for rice crops [2]
1 | Cc1nc(N)nc(NCc2ccc(F)c(C(F)=C(F)F)c2)n1 [Product P1.5] | very good herbicidal activity | very good herbicidal activity
2 | Cc1nc(N)nc(NCc2cc(F)c(C(F)=C(F)F)c(F)c2)n1 [Product P1.49] | very good herbicidal activity | very good herbicidal activity
3 | C#Cc1cc(CNc2nc(C)nc(N)n2)ccc1F [Product P1.309] | very good herbicidal activity | very good herbicidal activity
4 | C#Cc1c(F)cc(CNc2nc(C)nc(N)n2)cc1F [Product P1.352] | very good herbicidal activity | very good herbicidal activity
5 | CC#Cc1cc(CNc2nc(C)nc(N)n2)ccc1F [Product P1.384] | very good herbicidal activity | very good herbicidal activity
6 | CC#Cc1c(F)cc(CNc2nc(C)nc(N)n2)cc1F [Product P1.428] | very good herbicidal activity | very good herbicidal activity
7 | Cc1nc(N)nc(NCc2ccc(F)c(C3CC3)c2)n1 [Product P1.916] | very good herbicidal activity | very good herbicidal activity
8 | Cc1nc(N)nc(NCc2cc(F)c(C3CC3)c(F)c2)n1 [Product P1.960] | very good herbicidal activity | very good herbicidal activity
9 | Cc1nc(N)nc(NCc2cccc(C(F)=C(F)F)c2)n1 [Product P1.1567] | very good herbicidal activity | very good herbicidal activity
10 | Cc1nc(N)nc(NCc2ccc(C(F)=C(F)F)cc2)n1 [Product P1.1568] | very good herbicidal activity | very good herbicidal activity
11 | C#Cc1cccc(CNc2nc(C)nc(N)n2)c1 [Product P1.1579] | very good herbicidal activity | very good herbicidal activity
12 | C#Cc1ccc(CNc2nc(C)nc(N)n2)cc1 [Product P1.1580] | very good herbicidal activity | very good herbicidal activity
13 | CC#Cc1cccc(CNc2nc(C)nc(N)n2)c1 [Product P1.1582] | very good herbicidal activity | very good herbicidal activity
14 | CC#Cc1ccc(CNc2nc(C)nc(N)n2)cc1 [Product P1.1583] | very good herbicidal activity | very good herbicidal activity
15 | Cc1nc(N)nc(NCc2cccc(C3CC3)c2)n1 [Product P1.1603] | very good herbicidal activity | very good herbicidal activity
16 | Cc1nc(N)nc(NCc2ccc(C3CC3)cc2)n1 [Product P1.1604] | very good herbicidal activity | very good herbicidal activity
17 | Cc1nc(N)nc(NC(C)c2ccc(F)c(C(F)=C(F)F)c2)n1 (stereo not drawn) [Product P2.5] | very good herbicidal activity | very good herbicidal activity
18 | Cc1nc(N)nc(NC(C)c2cc(F)c(C(F)=C(F)F)c(F)c2)n1 (stereo not drawn) [Product P2.49] | very good herbicidal activity | very good herbicidal activity

Source: patent US20030224942A1, “Alkylamino-1,3,5-triazines, processes for their preparation and their use as herbicides and plant growth regulators” (priority 2001, published 2003)
